# Experimental data from patent US5578573A, “Viral integrase inhibiting peptides” (priority 1995, dated 1996).
# Residues, ends and D or L forms follow the SMILES beside them.
# Target: T1, HIV integrase (Human immunodeficiency virus type 1 group M subtype B, UniProt P04585)
# T1 construct: The HIV integrase used in these assays was expressed in E. coli; made in house; host or cells: E. coli
# Assay: biochemical
# Assay type: biochemical
# Conditions: for % Inhibition of HIV integrase activity: 50 μM peptide, results normalized to His-Cys-Lys-Phe-Trp-Trp-NH2 (SEQ ID NO: 19)
# Experimental: HIV integrase activity was assayed by site-specific cleavage and integration of a 28 base pair synthetic oligonucleotide substrate representing HIV-1 U5 essentially as described by Vink et al., Nucl. Acids Res. 21:1419-1425 (1993), which is incorporated herein by reference. The HIV integrase used in these assays was expressed in E. coli and purified to near homogeneity.
# Briefly, 0.2 pmol 5'-^32 P-oligonucleotide substrate and 2 μM HIV integrase were incubated at 37° C. for 1 hr in 10 μl assay buffer (10 mM MOPS, pH 7.2, 50 mM NaCl, 3 mM MnCl2, 0.05 mM EDTA, 0.1 mM β-mercaptoethanol, 4% glycerol). Control integrase activity was determined in the absence of any peptide. The activity of a peptide to be tested was examined by adding the peptide to the appropriate concentration in a 2 μl volume. Reactions were stopped by addition of 10 μl formamide loading dye (95% formamide, 20 mM EDTA, 0.05% bromophenol blue, 0.05% xylene cyanol) and incubation at 80° C. for 3 min. A 5 μl aliquot of the sample was separated by electrophoresis on a 12% denaturing polyacrylamide gel. Migration was detected by autoradiography and integrase activity was quantified by densitometry. Inhibition of integrase activity by a peptide corresponded with the disappearance of the cleavage and integration products.
SMILES,IC50 [µM],% Inhibition of HIV integrase activity [%]
CC[C@H](C)[C@H](NC(=O)[C@H](Cc1c[nH]c2ccccc12)NC(=O)[C@H](Cc1ccccc1)NC(=O)[C@H](CCCCN)NC(=O)[C@H](CS)NC(=O)[C@@H](N)Cc1c[nH]cn1)C(N)=O [compound 11] (H-HCKFWI-NH2),4,96
NCCCC[C@H](NC(=O)[C@H](Cc1c[nH]c2ccccc12)NC(=O)[C@H](Cc1ccccc1)NC(=O)[C@H](CCCCN)NC(=O)[C@H](CS)NC(=O)[C@@H](N)Cc1c[nH]cn1)C(N)=O [compound 13] (H-HCKFWK-NH2),,34
C[C@H](NC(=O)[C@H](CCCCN)NC(=O)[C@H](CS)NC(=O)[C@@H](N)Cc1c[nH]cn1)C(=O)N[C@@H](Cc1c[nH]c2ccccc12)C(=O)N[C@@H](Cc1c[nH]c2ccccc12)C(N)=O [compound 25] (H-HCKAWW-NH2),8,
C[C@H](NC(=O)[C@H](Cc1c[nH]c2ccccc12)NC(=O)[C@H](Cc1ccccc1)NC(=O)[C@H](CCCCN)NC(=O)[C@H](CS)NC(=O)[C@@H](N)Cc1c[nH]cn1)C(N)=O [compound 2] (H-HCKFWA-NH2),,2
CC(C)[C@H](NC(=O)[C@H](Cc1c[nH]c2ccccc12)NC(=O)[C@H](Cc1ccccc1)NC(=O)[C@H](CCCCN)NC(=O)[C@H](CS)NC(=O)[C@@H](N)Cc1c[nH]cn1)C(N)=O [compound 21] (H-HCKFWV-NH2),,85
NCCCC[C@H](NC(=O)[C@H](CS)NC(=O)[C@@H](N)Cc1cnc[nH]1)C(=O)N[C@@H](Cc1ccccc1)C(=O)N[C@@H](Cc1c[nH]c2ccccc12)C(=O)N[C@@H](Cc1c[nH]c2ccccc12)C(N)=O [compound 19] (H-HCKFWW-NH2),2,
CC(C)C[C@H](NC(=O)[C@H](Cc1c[nH]c2ccccc12)NC(=O)[C@H](Cc1ccccc1)NC(=O)[C@H](CCCCN)NC(=O)[C@H](CS)NC(=O)[C@@H](N)Cc1c[nH]cn1)C(N)=O [compound 12] (H-HCKFWL-NH2),,8
C[C@H](NC(=O)[C@@H](N)Cc1c[nH]cn1)C(=O)N[C@@H](CCCCN)C(=O)N[C@@H](Cc1ccccc1)C(=O)N[C@@H](Cc1c[nH]c2ccccc12)C(=O)N[C@@H](Cc1c[nH]c2ccccc12)C(N)=O [compound 23] (H-HAKFWW-NH2),30,
NCCCC[C@H](NC(=O)[C@H](CS)NC(=O)[C@@H](N)Cc1c[nH]cn1)C(=O)N[C@@H](Cc1ccccc1)C(=O)N[C@@H](Cc1c[nH]c2ccccc12)C(=O)N[C@@H](CCC(=O)O)C(N)=O [compound 7] (H-HCKFWE-NH2),,28
NCCCC[C@H](NC(=O)[C@H](CS)NC(=O)[C@@H](N)Cc1c[nH]cn1)C(=O)N[C@@H](Cc1ccccc1)C(=O)N[C@@H](Cc1c[nH]c2ccccc12)C(=O)N[C@@H](Cc1ccc(O)cc1)C(N)=O [compound 20] (H-HCKFWY-NH2),,75
C[C@H](NC(=O)[C@H](CS)NC(=O)[C@@H](N)Cc1c[nH]cn1)C(=O)N[C@@H](Cc1ccccc1)C(=O)N[C@@H](Cc1c[nH]c2ccccc12)C(=O)N[C@@H](Cc1c[nH]c2ccccc12)C(N)=O [compound 24] (H-HCAFWW-NH2),49,
NCCCC[C@H](NC(=O)[C@H](CS)NC(=O)[C@@H](N)Cc1c[nH]cn1)C(=O)N[C@@H](Cc1ccccc1)C(=O)N[C@@H](Cc1c[nH]c2ccccc12)C(=O)N[C@@H](Cc1ccccc1)C(N)=O [compound 15] (H-HCKFWF-NH2),5,95
NCCCC[C@H](NC(=O)[C@H](CS)NC(=O)[C@@H](N)Cc1c[nH]cn1)C(=O)N[C@@H](Cc1ccccc1)C(=O)N[C@@H](Cc1c[nH]c2ccccc12)C(=O)N1CCC[C@H]1C(N)=O [compound 16] (H-HCKFWP-NH2),,45
NCCCC[C@H](NC(=O)[C@H](CS)NC(=O)[C@@H](N)Cc1c[nH]cn1)C(=O)N[C@@H](Cc1ccccc1)C(=O)N[C@@H](Cc1c[nH]c2ccccc12)C(=O)N[C@@H](CS)C(N)=O [compound 6] (H-HCKFWC-NH2),,30
N=C(N)NCCC[C@H](NC(=O)[C@H](Cc1c[nH]c2ccccc12)NC(=O)[C@H](Cc1ccccc1)NC(=O)[C@H](CCCCN)NC(=O)[C@H](CS)NC(=O)[C@@H](N)Cc1c[nH]cn1)C(N)=O [compound 3] (H-HCKFWR-NH2),8,88
NCCCC[C@H](NC(=O)[C@H](CS)NC(=O)[C@@H](N)Cc1c[nH]cn1)C(=O)N[C@@H](Cc1ccccc1)C(=O)N[C@@H](Cc1c[nH]c2ccccc12)C(=O)N[C@@H](Cc1c[nH]c2ccccc12)C(N)=O [compound 19] (H-HCKFWW-NH2),,100
C[C@@H](O)[C@H](NC(=O)[C@H](Cc1c[nH]c2ccccc12)NC(=O)[C@H](Cc1ccccc1)NC(=O)[C@H](CCCCN)NC(=O)[C@H](CS)NC(=O)[C@@H](N)Cc1c[nH]cn1)C(N)=O [compound 18] (H-HCKFWT-NH2),,8
NCCCC[C@H](NC(=O)[C@H](CS)NC(=O)[C@@H](N)Cc1c[nH]cn1)C(=O)N[C@@H](Cc1ccccc1)C(=O)N[C@@H](Cc1c[nH]c2ccccc12)C(=O)N[C@@H](Cc1c[nH]cn1)C(N)=O [compound 10] (H-HCKFWH-NH2),,72
CSCC[C@H](NC(=O)[C@H](Cc1c[nH]c2ccccc12)NC(=O)[C@H](Cc1ccccc1)NC(=O)[C@H](CCCCN)NC(=O)[C@H](CS)NC(=O)[C@@H](N)Cc1c[nH]cn1)C(N)=O [compound 14] (H-HCKFWM-NH2),,42
NCCCC[C@H](NC(=O)[C@H](CS)NC(=O)[C@@H](N)Cc1c[nH]cn1)C(=O)N[C@@H](Cc1ccccc1)C(=O)N[C@@H](Cc1c[nH]c2ccccc12)C(=O)N[C@@H](CCC(N)=O)C(N)=O [compound 8] (H-HCKFWQ-NH2),,8
NCCCC[C@H](NC(=O)[C@H](CS)NC(=O)[C@@H](N)Cc1c[nH]cn1)C(=O)N[C@@H](Cc1ccccc1)C(=O)N[C@@H](Cc1c[nH]c2ccccc12)C(=O)N[C@@H](CC(N)=O)C(N)=O [compound 4] (H-HCKFWN-NH2),,30
C[C@H](NC(=O)[C@H](Cc1ccccc1)NC(=O)[C@H](CCCCN)NC(=O)[C@H](CS)NC(=O)[C@@H](N)Cc1c[nH]cn1)C(=O)N[C@@H](Cc1c[nH]c2ccccc12)C(N)=O [compound 26] (H-HCKFAW-NH2),150,
C[C@H](NC(=O)[C@H](Cc1c[nH]c2ccccc12)NC(=O)[C@H](Cc1ccccc1)NC(=O)[C@H](CCCCN)NC(=O)[C@H](CS)NC(=O)[C@@H](N)Cc1c[nH]cn1)C(N)=O [compound 27] (H-HCKFWA-NH2),210,
NCCCC[C@H](NC(=O)[C@H](CS)NC(=O)[C@@H](N)Cc1c[nH]cn1)C(=O)N[C@@H](Cc1ccccc1)C(=O)N[C@@H](Cc1c[nH]c2ccccc12)C(=O)NCC(N)=O [compound 9] (H-HCKFWG-NH2),,82
C[C@H](N)C(=O)N[C@@H](CS)C(=O)N[C@@H](CCCCN)C(=O)N[C@@H](Cc1ccccc1)C(=O)N[C@@H](Cc1c[nH]c2ccccc12)C(=O)N[C@@H](Cc1c[nH]c2ccccc12)C(N)=O [compound 22] (H-ACKFWW-NH2),51,
NCCCC[C@H](NC(=O)[C@H](CS)NC(=O)[C@@H](N)Cc1c[nH]cn1)C(=O)N[C@@H](Cc1ccccc1)C(=O)N[C@@H](Cc1c[nH]c2ccccc12)C(=O)N[C@@H](CC(=O)O)C(N)=O [compound 5] (H-HCKFWD-NH2),,18
NCCCC[C@H](NC(=O)[C@H](CS)NC(=O)[C@@H](N)Cc1c[nH]cn1)C(=O)N[C@@H](Cc1ccccc1)C(=O)N[C@@H](Cc1c[nH]c2ccccc12)C(=O)N[C@@H](CO)C(N)=O [compound 17] (H-HCKFWS-NH2),,40
